Values quoted from earlier work, collected in patent US11229230B2, “Antioxidant-enriched multivitamin composition and methods of use” (Callion Pharma, LLC, priority 2016, dated 2022).

Tests used:
[1] = system: cystic fibrosis; conditions: oral treatment, Phase II clinical study
[2] = system: cystic fibrosis patients; conditions: inhaled

SMILES | lung function [1] | effectiveness in cystic fibrosis [2]
CC(=O)N[C@@H](CS)C(=O)O [N-acetylcysteine] | did not improve lung function | –
N[C@@H](CCC(=O)N[C@@H](CS)C(=O)NCC(=O)O)C(=O)O [glutathione] | – | has not been effective
